In patent US20240174637A1, “DEGRADERS OF GRK2 AND USES THEREOF” (Sonata Therapeutics, Inc., priority 2021, published 2024):
pIC50: −log10 of the molar value. Structures can show the parent of a compound that is named as a salt.

Experiments:
GRK2 [1] = target: T1, GRK2 (Homo sapiens, UniProt P25098); test: GRK2 Inhibition Assay (TR-FRET, Example 1); assay type: biochemical; details: Table 4; Example 1 assay; read-out: Enzymatic GRK2 IC50: Av IC50 GRK2
T1 sequence (P25098 1-689): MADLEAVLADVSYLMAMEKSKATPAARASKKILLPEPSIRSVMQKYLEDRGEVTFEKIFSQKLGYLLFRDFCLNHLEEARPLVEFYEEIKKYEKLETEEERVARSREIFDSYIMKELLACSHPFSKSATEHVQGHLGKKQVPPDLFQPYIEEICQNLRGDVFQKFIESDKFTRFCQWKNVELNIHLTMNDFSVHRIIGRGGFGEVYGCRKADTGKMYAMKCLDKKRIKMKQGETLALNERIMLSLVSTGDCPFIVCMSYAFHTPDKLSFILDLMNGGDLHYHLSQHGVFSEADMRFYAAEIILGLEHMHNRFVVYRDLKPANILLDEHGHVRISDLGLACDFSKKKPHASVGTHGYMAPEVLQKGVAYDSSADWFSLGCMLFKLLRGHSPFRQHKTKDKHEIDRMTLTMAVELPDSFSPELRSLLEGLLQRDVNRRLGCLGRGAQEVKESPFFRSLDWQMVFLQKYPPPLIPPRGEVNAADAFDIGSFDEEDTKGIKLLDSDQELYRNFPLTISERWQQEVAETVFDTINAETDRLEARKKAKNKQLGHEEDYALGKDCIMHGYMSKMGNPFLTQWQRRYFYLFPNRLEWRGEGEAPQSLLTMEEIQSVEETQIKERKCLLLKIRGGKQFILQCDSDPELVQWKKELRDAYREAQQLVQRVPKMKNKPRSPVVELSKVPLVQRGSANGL
Method in brief: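 GRK2 (1 nM) pre-incubated 30 min RT with compounds in HEPES/MgCl2/DTT/Tween-20/EGTA buffer, then reacted 90 min RT with 7 μM ATP and 50 nM ULight-TopoIIα substrate. Stopped with EDTA plus Eu anti-TopoIIα antibody; TR-FRET read after 60 min.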

PAXF1657 KO Clone #4 = test: 7-day cellular proliferation assay (CellTiter-Glo), PAXF1657 KO Clone #4; assay type: cell-based; details: proliferation, read-out: GeoMean IC50 (uM) PAXF1657 KO Clone #4
Method in brief: (§1)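 Seven-day growth in PAXF1657 lines engineered for GRK2 overexpression or knockout, measured by CellTiter-Glo; compounds tested at 30 μM-0.0002 μM final and replenished once at day 3.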

PAXF1657 EV = test: 7-day cellular proliferation assay (CellTiter-Glo), PAXF1657 EV; assay type: cell-based; details: proliferation, read-out: GeoMean IC50 (UM) PAXF1657 EV
Method in brief: as §1

GRK2 [2] = target: T1, GRK2; test: GRK2 Degradation Assay and Western Blot in PAXF1657 cells; assay type: cell-based; parameters: endogenous in cells; host or cells: PAXF1657; details: for inhibition at 0.3 µM: Conc 0.3 uM; for inhibition at 0.3 µM / inhibition at 1 µM / inhibition at 3 µM: read-out: Degradation Assay - 3 point: Degradation (%); for inhibition at 1 µM: Conc 1 uM; for inhibition at 3 µM: Conc 3 uM; for DC50: PAXF1657, 24 h, read-out: Degradation Assay - Full Dose Response: IC50 (uM) [cell line: PAXF1657, time point: 24 h]
Method in brief: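 PAXF1657 cells grown to 70% confluency, then treated with compounds at 0–10 μM for 6 to 24 h at 37 °C. Lysates in PBS with 1% NP40 run on SDS-PAGE. GRK2 protein detected by western blot with β-actin as loading reference, using ECL chemiluminescence.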

Structure (SMILES) | pIC50 (GRK2 [1]) | inhibition at 0.3 µM (GRK2 [2]) [%] | inhibition at 1 µM (GRK2 [2]) [%] | inhibition at 3 µM (GRK2 [2]) [%] | DC50 (GRK2 [2]) [µM] | IC50 (PAXF1657 KO Clone #4) [µM] | pIC50 (PAXF1657 EV)
C[C@@H](NC(=O)c1cccc(NCc2nnc(-c3ccncn3)n2C)c1)c1cccc(OCCCCCCOCCOCCOCCC(=O)N2CCN(c3cc4c(cc3F)C(=O)N(C3CCC(=O)NC3=O)C4=O)CC2)c1 (stereo partly drawn) [Compound D130, N-((1R)-1-(3-(6-(2-(2-(3-(4-(2-(2,6-dioxopiperidin-3-yl)-6-fluoro-1,3-dioxoisoindolin-5-yl)piperazin-1-yl)-3-oxopropoxy)ethoxy)ethoxy)hexyloxy)phenyl)ethyl)-3-((4-methyl-5-(pyrimidin-4-yl)-4H-1,2,4-triazol-3-yl)methylamino)benzamide] | 7.75 | 78.7 | 84.7 | 90.7 | 0.29 | 24.7 | 6.06
C[C@@H](NC(=O)c1cccc(NCc2nnc(-c3ccncn3)n2C)c1)c1cccc(OCCCCCCOCCOCCOCCC(=O)N2CCN(c3ccc4c(c3)CN(C3CCC(=O)NC3=O)C4=O)CC2)c1 (stereo partly drawn) [Compound D131, N-((1R)-1-(3-(6-(2-(2-(3-(4-(2-(2,6-dioxopiperidin-3-yl)-1-oxoisoindolin-5-yl)piperazin-1-yl)-3-oxopropoxy)ethoxy)ethoxy)hexyloxy)phenyl)ethyl)-3-((4-methyl-5-(pyrimidin-4-yl)-4H-1,2,4-triazol-3-yl)methylamino)benzamide] | 7.58 | 17.5 | 68.7 | 89.2 | 0.24 | > 30 | 6.66
C[C@@H](NC(=O)c1cccc(NCc2nnc(-c3ccncn3)n2C)c1)c1cccc(OCCCCCCOCCOCC(=O)N2CCN(c3ccc4c(c3)CN(C3CCC(=O)NC3=O)C4=O)CC2)c1 (stereo partly drawn) [Compound D138, N-((1R)-1-(3-(6-(2-(2-(4-(2-(2,6-dioxopiperidin-3-yl)-1-oxoisoindolin-5-yl)piperazin-1-yl)-2-oxoethoxy)ethoxy)hexyloxy)phenyl)ethyl)-3-((4-methyl-5-(pyrimidin-4-yl)-4H-1,2,4-triazol-3-yl)methylamino)benzamide hydrochloride] | 7.69 | 85 | 92 | 95 | 0.137 | > 30 | 6.18
C[C@@H](NC(=O)c1cccc(NCc2nnc(-c3ccncn3)n2C)c1)c1cccc(OCCCCCCOCCOCCN2CCN(c3cc4c(cc3F)C(=O)N(C3CCC(=O)NC3=O)C4=O)CC2)c1 (stereo partly drawn) [Compound D140, N-((1R)-1-(3-(6-(2-(2-(4-(2-(2,6-dioxopiperidin-3-yl)-6-fluoro-1,3-dioxoisoindolin-5-yl)piperazin-1-yl)ethoxy)ethoxy)hexyloxy)phenyl)ethyl)-3-((4-methyl-5-(pyrimidin-4-yl)-4H-1,2,4-triazol-3-yl)methylamino)benzamide] | 7.68 | 88 | 92 | 93 | 0.12 | 19.9 | 6.11
C[C@@H](NC(=O)c1cccc(NCc2nnc(-c3ccncn3)n2C)c1)c1cccc(OCCCCCCOCCOCCNc2ccc3c(c2)CN(C2CCC(=O)NC2=O)C3=O)c1 (stereo partly drawn) [Compound D141, N-((1R)-1-(3-(6-(2-(2-(2-(2,6-dioxopiperidin-3-yl)-1-oxoisoindolin-5-ylamino)ethoxy)ethoxy)hexyloxy)phenyl)ethyl)-3-((4-methyl-5-(pyrimidin-4-yl)-4H-1,2,4-triazol-3-yl)methylamino)benzamide] | 7.71 | 89 | 88 | 67 | 8.71 | 1.66 | 6.77

These reach a higher pIC50 (GRK2 [1]). Values come first.

pIC50 (GRK2 [1]) | inhibition at 0.3 µM (GRK2 [2]) [%] | inhibition at 1 µM (GRK2 [2]) [%] | inhibition at 3 µM (GRK2 [2]) [%] | DC50 (GRK2 [2]) [µM] | Structure (SMILES) | IC50 (PAXF1657 KO Clone #4) [µM] | pIC50 (PAXF1657 EV)
7.79 | 87.4 | 92.4 | 91.5 | 0.12 | C[C@@H](NC(=O)c1cccc(NCc2nnc(-c3ccncn3)n2C)c1)c1cccc(OCCCCCCOCC(=O)N2CCN(c3ccc4c(c3)CN(C3CCC(=O)NC3=O)C4=O)CC2)c1 (stereo partly drawn) [Compound D132, N-((1R)-1-(3-(6-(2-(4-(2-(2,6-dioxopiperidin-3-yl)-1-oxoisoindolin-5-yl)piperazin-1-yl)-2-oxoethoxy)hexyloxy)phenyl)ethyl)-3-((4-methyl-5-(pyrimidin-4-yl)-4H-1,2,4-triazol-3-yl)methylamino)benzamide] | > 30 | 7.40
8.04 | 57.7 | 82.4 | 86.7 |  | C[C@@H](NC(=O)c1cccc(NCc2nnc(-c3ccncn3)n2C)c1)c1cccc(OCCCCCCOCC(=O)N2CCN(c3cc4c(cc3F)C(=O)N(C3CCC(=O)NC3=O)C4=O)CC2)c1 (stereo partly drawn) [Compound D133, N-((1R)-1-(3-(6-(2-(4-(2-(2,6-dioxopiperidin-3-yl)-6-fluoro-1,3-dioxoisoindolin-5-yl)piperazin-1-yl)-2-oxoethoxy)hexyloxy)phenyl)ethyl)-3-((4-methyl-5-(pyrimidin-4-yl)-4H-1,2,4-triazol-3-yl)methylamino)benzamide] | > 30 | 6.15
7.90 | 71.2 | 79.2 | 80.4 |  | C[C@@H](NC(=O)c1cccc(NCc2nnc(-c3ccncn3)n2C)c1)c1ccc(OCCCCCCOCCOCCOCCC(=O)N2CCN(c3cc4c(cc3F)C(=O)N(C3CCC(=O)NC3=O)C4=O)CC2)cc1 (stereo partly drawn) [Compound D137, N-((1R)-1-(4-(6-(2-(2-(3-(4-(2-(2,6-dioxopiperidin-3-yl)-6-fluoro-1,3-dioxoisoindolin-5-yl)piperazin-1-yl)-3-oxopropoxy)ethoxy)ethoxy)hexyloxy)phenyl)ethyl)-3-((4-methyl-5-(pyrimidin-4-yl)-4H-1,2,4-triazol-3-yl)methylamino)benzamide] | 22.8 | 6.85
7.87 | 86 | 92 | 95 | 0.23 | C[C@@H](NC(=O)c1cccc(NCc2nnc(-c3ccncn3)n2C)c1)c1cccc(OCCCCCCOCCOCC(=O)N2CCN(c3cc4c(cc3F)C(=O)N(C3CCC(=O)NC3=O)C4=O)CC2)c1 (stereo partly drawn) [Compound D139, N-((1R)-1-(3-(6-(2-(2-(4-(2-(2,6-dioxopiperidin-3-yl)-6-fluoro-1,3-dioxoisoindolin-5-yl)piperazin-1-yl)-2-oxoethoxy)ethoxy)hexyloxy)phenyl)ethyl)-3-((4-methyl-5-(pyrimidin-4-yl)-4H-1,2,4-triazol-3-yl)methylamino)benzamide] | 26.6 | 6.70
7.98 | 88 | 82 | 83 | 0.11 | C[C@@H](NC(=O)c1cccc(NCc2nnc(-c3ccncn3)n2C)c1)c1cccc(OCCCCCCOCCOCCNc2cccc3c2CN(C2CCC(=O)NC2=O)C3=O)c1 (some centres unmarked) [Compound D143] | 5.32 | 6.96
8.00 | 73.8 | 81.6 | 83.1 |  | C[C@@H](NC(=O)c1cccc(NCc2nnc(-c3ccncn3)n2C)c1)c1ccc(OCCCCCCOCCOCCOCCCCCC(=O)Nc2cccc3c2CN(C2CCC(=O)NC2=O)C3=O)cc1 (stereo partly drawn) [Compound D147, N-((1R)-1-(4-(6-(2-(2-(6-(2-(2,6-dioxopiperidin-3-yl)-1-oxoisoindolin-4-ylamino)-6-oxohexyloxy)ethoxy)ethoxy)hexyloxy)phenyl)ethyl)-3-((4-methyl-5-(pyrimidin-4-yl)-4H-1,2,4-triazol-3-yl)methylamino)benzamide] | > 30 | 6.96
